Assay results taken from US20100317689A1, “Prodrugs of proton pump inhibitors including the 1h-imidazo[4,5-b] pyridine moiety” (priority 2006, published 2010).
One block for each molecule: values may come before it.

Experiments:
[1] = Stability in human plasma; format: in vitro ADME
Experimental: (§1) Exemplary test compounds (prodrugs) of the invention can be incubated in plasma at 37° C. to test their stability and hydrolysis to give the corresponding drug TENATOPRAZOLE. The concentration of the compounds and also of the corresponding proton pump inhibitor TENATOPRAZOLE can be determined by a gradient HPLC-UV method. Although the half-lives of test compounds in plasma is expected to vary depending on their specific structure, nevertheless it is expected that in plasma the compounds of the invention are converted into the corresponding proton pump inhibitor TENATOPRAZOLE at a rate faster than the hydrolysis rate of the compound at neutral or near neutral pH. […] Therefore the compounds of the invention and especially the preferred compounds which have the chemical structure shown in Formulas 4 and 5 are good candidates to be used as prodrugs in intravenous injection and are expected to release the active proton pump inhibitor in vivo.

[2] = Stability at physiological pH 7.4 without plasma or blood; format: physicochemical
Experimental: as §1

[3] = Stability in rat plasma at 37° C., hydrolysis to tenatoprazole; format: in vitro ADME
Experimental: as §1

[4] = system: histamine and carbachol-stimulated gastric acid secretion; assay: Inhibition of gastric acid secretion of the conscious male rat, oral administration; format: in vivo; conditions: 40 μmole/kg, pylorus ligated 3 hours after administration, gastric juice collected two hours later
Experimental: Male rats (the Sprague-Dawley strain) are used in this assay. Salts of known benzimidazole type proton pump inhibitors, such as OMEPRAZOLE sodium salt, LANSOPRAZOLE sodium salt or TENATOPRAZOLE sodium salt (20 mg) is suspended in 10 ml of 0.1 N NaHCO3. 70 mg of each of the sodium salts of the compounds of the present invention are dissolved in 6 ml of 50% DMSO-50% 50 mM sodium phosphate buffer, pH 7.4. The doses administered to the rats are as follows (μmole per kg body weight of the rat): TENATOPRAZOLE (40 μmole/kg), a mixture of sodium 2-(4-(5-methoxy-2-((4-methoxy-3,5-dimethylpyridin-2-yl)methylsulfinyl)-1H-imidazo[4,5-b]pyridin-1-ylsulfonyl)phenoxy)acetate (Compound 1) and sodium 2-(4-(5-methoxy-2-((4-methoxy-3,5-dimethylpyridin-2-yl)methylsulfinyl)-3H-imidazo[4,5-b]pyridin-3-ylsulfonyl)phenoxy)acetate (1:1 of the isomeric mixture) 20 μmole/kg, and 40 μmole/kg. These drug solutions are orally administered. 3 hours after administration the abdomen of the rat is incised and the pylorus is ligated under light ether anethesia. […] The gastric juice is collected and acid output is quantified by titration using 0.1 N NaOH solution. […] Acid output is quantified by same method as described above, showing maximum histamine and carbachol-stimulated gastric acid secretion. Percentage inhibition is calculated from the fractional responses elicited by the test compound and a control experiment.

[5] = Plasma concentration of tenatoprazole after oral dosing in rats; format: in vivo, rat

- half-life [1]: 1.35 min
Molecule: COc1ccc2c(n1)nc([S+]([O-])Cc1ncc(C)c(OC)c1C)n2S(=O)(=O)c1ccc(OCC(=O)[O-])cc1.[Na+] (stereo not drawn) [Compound 1, sodium 2-(4-(5-methoxy-2-((4-methoxy-3,5-dimethylpyridin-2-yl)methylsulfinyl)-1H-imidazo[4,5-b]pyridin-1-ylsulfonyl)phenoxy)acetate]

Molecule: sodium 2-(4-(5-methoxy-2-((4-methoxy-3,5-dimethylpyridin-2-yl)methylsulfinyl)-1H-imidazo[4,5-b]pyridin-1-ylsulfonyl)phenoxy)acetate (Compound 1) and sodium 2-(4-(5-methoxy-2-((4-methoxy-3,5-dimethylpyridin-2-yl)methylsulfinyl)-3H-imidazo[4,5-b]pyridin-3-ylsulfonyl)phenoxy)acetate [1:1 mixture of Compound 1 and its positional isomer]
- half-life in physiological pH 7.4 without the plasma or blood [2]: greater than 24 hr
- half-life in rat plasma [3]: 1.2 min
- inhibition of gastric acid secretion [4]: 83.3±13.7%
- plasma concentration of tenatoprazole ([5]; male Sprague-Dawley rats, oral 40 μmole/kg, 5 h postdose): 1940 ± 1685 ng/mL
- plasma level and half-life of TENATOPRAZOLE compared with TENATOPRAZOLE itself ([5]; rat, oral): maintains higher plasma level of TENATOPRAZOLE with longer plasma half-life
